The subject of experiment [1] is HCT-116. Nature of the experiment: Induction of ferroptosis in human HCT-116 cells assessed as effect on GSH level at 5 to 20 uM incubated for 12 hrs. Format: functional, cell-based. Conditions: dose 5-20 µM.
The test system of experiment [2] is HCT-116. Nature of the experiment: Antitumor activity against human HCT-116 cells xenografted in BALB/c mouse assessed as reduction in tumor growth at 60 mg/kg,ip administrated daily for 14 days. It is filed as functional, organism-based. As to conditions: time 14.0 day. (In general: Xenograft models place foreign cells or tissue in a host animal.)
Experiment [3] concerns HCT-116. Nature of the experiment: Induction of ferroptosis in human HCT-116 cells assessed as increase in ferrous ion level in lysosomes at 20 uM incubated for 12 hrs by Hoechst 33342 staining based confocal fluorescence microscopic analysis. Format: functional, cell-based.
Experiment [4] concerns HCT-116. Nature of the experiment: Cytotoxicity against human HCT-116 cells assessed as inhibition of cell growth incubated for 24 hrs by CCK-8 assay. It is filed as functional, cell-based. As to conditions: HCT-116, 24 h.
Experiment [5] concerns HCT-116. Briefly: Antitumor activity against human HCT-116 cells xenografted in BALB/c mouse assessed as increase in 4-HNE level in tumor at 60 mg/kg,ip administrated daily for 14 days by ELISA. Format: functional, organism-based. As to conditions: time 14.0 day.

Results on one molecule are retold here after ChEMBL document CHEMBL5505993, “Identification of a ferritinophagy inducer via sinomenine modification for the treatment of colorectal cancer” (Eur J Med Chem, 2024).

The source made the active and inactive calls. No cut-off for these calls is given here.

By IC50 is commonly meant the concentration needed to halve the response being measured. `C=C(Cl)C(=O)NCCCCCCCCCCCC(=O)Oc1c(OC)ccc2c1[C@@]13CCN(C)[C@@H](C2)[C@H]1C=C(OC)C(=O)C3`: the result in the experiment with HCT-116 [1] was inactive. Further, the outcome in the experiment on HCT-116 [2], in the experiment on HCT-116 [3] and with HCT-116 [5] was Active. Further, in the experiment on HCT-116 [4], the IC50 came to 11.2 µM.
